Measurements: US10919916B2, “Boron-containing small molecules” (Bill & Melinda Gates Foundation, priority 2016, dated 2021)
Values after ≈ are worked out from the molar mass of the structure shown. Like-named read-outs stand apart in the source and are kept apart here.

Assays:
Assay type in all cases: cell-based
[1] = tested on: Wolbachia pipientis in C6/36 cell line; assay: Anti-Wolbachia high-content assay; conditions: C6/36 (wAlbB) cells, 7 days at 26° C., 50% reduction of Wolbachia, read-out: EC50 Wolbachia pipientis in C6/36 cell line
Experimental: After 15 minutes, all media was removed from each well and fresh media (no stain) was added. Imaging of each well was accomplished using a Perkin Elmer Operetta high-content imaging system. Five fields per well were imaged using a confocal 60× objective with the Fluorescein filter (excitation filter: 460-490 nm; emission filter: 500-550 nm). Images were analyzed using the Perkin Elmer Harmony software to score each intact cell on the basis of texture complexity of the cytoplasm. Full details can be found in: […]. et al, J. Biomol.

[2] = tested on: Staphylococcus aureus, MRSA (ATCC 33591); assay: Antibacterial MIC assay (microbroth dilution, CLSI); conditions: read-out: MIC Staphylococcus aureus, MRSA (ATCC 33591)
Summary of the method: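 Microbroth dilution per CLSI M07-A10/M100-S25 in cation-adjusted Mueller-Hinton broth, with 3% lysed horse blood added for S. pneumoniae. Inoculum from a 0.5 McFarland direct colony suspension, diluted to 5×10^5 CFU/mL in the well. Compounds were 2-fold serially diluted; MIC read against a growth control.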

[3] = tested on: Streptococcus pneumoniae (ATCC 49619); assay: as above
Summary of the method: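 CLSI broth microdilution: 2-fold compound dilutions in cation-adjusted Mueller-Hinton broth supplemented with 3% lysed horse blood for S. pneumoniae, inoculum 5×10^5 CFU/mL from a 0.5 McFarland direct colony suspension, with growth control.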

[4] = microbroth dilution, cation-adjusted Mueller-Hinton broth, 35° C. for 16-20 hours
[5] = ATCC49619, microbroth dilution, 3% lysed horse blood, 35° C. for 16-20 hours, read-out: MIC Streptococcus pneumoniae (ATCC 49619)
[6] = ATCC49619, read-out: MIC Streptococcus pneumoniae (ATCC 49619)

SMILES | EC50 [1] [nM] | MIC [2, 4] [µg/mL] | MIC [3, 5] [µg/mL] | MIC [2] [µg/mL] | MIC [3, 6] [µg/mL]
C=C[C@]1(C)C[C@@H](OC(=O)COc2ccc3c(c2F)B(O)OC3)[C@]2(C)[C@H](C)CC[C@]3(C[C@H](F)C(=O)[C@H]32)[C@@H](C)[C@@H]1O [Compound 39, (2S,3aR,4R,5R,7S,8S,9R,9aS,12R)-2-fluoro-8-hydroxy-4,7,9,12-tetramethyl-3-oxo-7-vinyldecahydro-4,9a-propanocyclopenta[8]annulen-5-yl 2-((7-fluoro-1-hydroxy-1,3-dihydrobenzo[c][1,2]oxaborol-6-yl)oxy)acetate] | 84 | < 0.25 | 0.5 to 2 (≈ 0.915 to 3.66 µM) | – | –
C=C[C@]1(C)C[C@@H](OC(=O)COc2ccc3c(c2)B(O)NN=C3)[C@]2(C)[C@H](C)CC[C@]3(C[C@H](F)C(=O)[C@H]32)[C@@H](C)[C@@H]1O [Compound 74, (2S,3aR,4R,5R,7S,8S,9R,9aS,12R)-2-fluoro-8-hydroxy-4,7,9,12-tetramethyl-3-oxo-7-vinyldecahydro-4,9a-propanocyclopenta[8]annulen-5-yl 2-((1-hydroxy-1,2-dihydrobenzo[d][1,2,3]diazaborinin-7-yl)oxy)acetate] | 4 | < 0.25 | < 0.25 | – | –
C=C[C@]1(C)C[C@@H](OC(=O)COc2cc3c(c(C4CCNCC4)c2)COB3O)[C@]2(C)[C@H](C)CC[C@]3(CCC(=O)[C@H]32)[C@@H](C)[C@@H]1O [Compound 18, (3aR,4R,5R,7S,8S,9R,9aS,12R)-8-hydroxy-4,7,9,12-tetramethyl-3-oxo-7-vinyldecahydro-4,9a-propanocyclopenta[8]annulen-5-yl 2-((1-hydroxy-4-(piperidin-4-yl)-1,3-dihydrobenzo[c][1,2]oxaborol-6-yl)oxy)acetate] | > 1000 | 0.5 to 2 (≈ 0.842 to 3.37 µM) | – | – | –
C=C[C@]1(C)C[C@@H](OC(=O)COc2cc3c(cn2)COB3O)[C@]2(C)[C@H](C)CC[C@]3(CCC(=O)[C@H]32)[C@@H](C)[C@@H]1O [Compound 100, (3aR,4R,5R,7S,8S,9R,9aS,12R)-8-hydroxy-4,7,9,12-tetramethyl-3-oxo-7-vinyldecahydro-4,9a-propanocyclopenta[8]annulen-5-yl 2-((1-hydroxy-1,3-dihydro-[1,2]oxaborolo[4,3-c]pyridin-6-yl)oxy)acetate] | > 1000 | > 64 | – | – | –
C=C[C@]1(C)C[C@@H](OC(=O)C[S@+]([O-])c2ccc3c(c2)B(O)OC3)[C@]2(C)[C@H](C)CC[C@]3(CCC(=O)[C@H]32)[C@@H](C)[C@@H]1O [Compound 63, (3aR,4R,5R,7S,8S,9R,9aS,12R)-8-hydroxy-4,7,9,12-tetramethyl-3-oxo-7-vinyldecahydro-4,9a-propanocyclopenta[8]annulen-5-yl 2-((S)-(1-hydroxy-1,3-dihydrobenzo[c][1,2]oxaborol-6-yl)sulfinyl)acetate] | – | – | – | 0.5 to 2 (≈ 0.922 to 3.69 µM) | 4 to 32 (≈ 7.37 to 59 µM)
C=C[C@]1(C)C[C@@H](OC(=O)COc2ccc3c(c2C)B(O)OC3)[C@]2(C)[C@H](C)CC[C@]3(CCC(=O)[C@H]32)[C@@H](C)[C@@H]1O [Compound 9, (3aR,4R,5R,7S,8S,9R,9aS,12R)-8-hydroxy-4,7,9,12-tetramethyl-3-oxo-7-vinyldecahydro-4,9a-propanocyclopenta[8]annulen-5-yl2-((1-hydroxy-7-methyl-1,3-dihydrobenzo[c][1,2]oxaborol-6-yl)oxy)acetate] | – | – | – | < 0.25 | 0.5 to 2 (≈ 0.953 to 3.81 µM)
C=C[C@]1(C)C[C@@H](OC(=O)COc2cc(F)c3c(c2)B(O)OC3)[C@]2(C)[C@H](C)CC[C@]3(CCC(=O)[C@H]32)[C@@H](C)[C@@H]1O [Compound 4, (3aR,4R,5R,7S,8S,9R,9aS,12R)-8-hydroxy-4,7,9,12-tetramethyl-3-oxo-7-vinyldecahydro-4,9a-propanocyclopenta[8]annulen-5-yl 2-((4-fluoro-1-hydroxy-1,3-dihydrobenzo[c][1,2]oxaborol-6-yl)oxy)acetate] | – | – | – | < 0.25 | 0.5 to 2 (≈ 0.946 to 3.78 µM)
C=C[C@]1(C)C[C@@H](OC(=O)COc2ccc3c(c2)B(O)N(C)N=C3)[C@]2(C)[C@H](C)CC[C@]3(CCC(=O)[C@H]32)C[C@@H]1O [Compound 83, (3aR,4R,5R,7S,8S,9aS,12R)-8-hydroxy-4,7,12-trimethyl-3-oxo-7-vinyldecahydro-4,9a-propanocyclopenta[8]annulen-5-yl 2-((1-hydroxy-2-methyl-1,2-dihydrobenzo[d][1,2,3]diazaborinin-7-yl)oxy)acetate] | – | < 0.25 | < 0.25 | – | –
C=C[C@]1(C)C[C@@H](OC(=O)C[S@+]([O-])c2ccc3c(c2F)B(O)OC3)[C@]2(C)[C@H](C)CC[C@]3(CCC(=O)[C@H]32)[C@@H](C)[C@@H]1O [Compound 66, (3aR,4R,5R,7S,8S,9R,9aS,12R)-8-hydroxy-4,7,9,12-tetramethyl-3-oxo-7-vinyldecahydro-4,9a-propanocyclopenta[8]annulen-5-yl 2-((S)-(7-fluoro-1-hydroxy-1,3-dihydrobenzo[c][1,2]oxaborol-6-yl)sulfinyl)acetate] | – | – | – | 0.5 to 2 (≈ 0.892 to 3.57 µM) | 4 to 32 (≈ 7.14 to 57.1 µM)
C=C[C@]1(C)C[C@@H](OC(=O)COc2ccc3c(c2F)B(O)OC3)[C@]2(C)[C@H](C)CC[C@]3(CCC(=O)[C@H]32)[C@@H](C)[C@@H]1O [Compound 2, (3aR,4R,5R,7S,8S,9R,9aS,12R)-8-hydroxy-4,7,9,12-tetramethyl-3-oxo-7-vinyldecahydro-4,9a-propanocyclopenta[8]annulen-5-yl 2-((7-fluoro-1-hydroxy-1,3-dihydrobenzo[c][1,2]oxaborol-6-yl)oxy)acetate] | – | – | – | < 0.25 | 0.5 to 2 (≈ 0.946 to 3.78 µM)
C=C[C@]1(C)C[C@@H](OC(=O)NCc2ccc3c(c2)B(O)OC3)[C@]2(C)[C@H](C)CC[C@]3(CCC(=O)[C@H]32)[C@@H](C)[C@@H]1O [Compound 56, (3aR,4R,5R,7S,8S,9R,9aS,12R)-8-hydroxy-4,7,9,12-tetramethyl-3-oxo-7-vinyldecahydro-4,9a-propanocyclopenta[8]annulen-5-yl ((1-hydroxy-1,3-dihydrobenzo[c][1,2]oxaborol-6-yl)methyl) carbamate] | – | < 0.25 | 0.5 to 2 (≈ 0.981 to 3.93 µM) | – | –
C=C[C@]1(C)C[C@@H](OC(=O)C[S@@+]([O-])c2ccc3c(c2F)B(O)OC3)[C@]2(C)[C@H](C)CC[C@]3(CCC(=O)[C@H]32)[C@@H](C)[C@@H]1O [Compound 67, (3aR,4R,5R,7S,8S,9R,9aS,12R)-8-hydroxy-4,7,9,12-tetramethyl-3-oxo-7-vinyldecahydro-4,9a-propanocyclopenta[8]annulen-5-yl 2-((R)-(7-fluoro-1-hydroxy-1,3-dihydrobenzo[c][1,2]oxaborol-6-yl)sulfinyl)acetate] | – | – | – | < 0.25 | 0.5 to 2 (≈ 0.892 to 3.57 µM)
C=C[C@]1(C)C[C@@H](OC(=O)COc2cc(C)c3c(c2)B(O)OC3)[C@]2(C)[C@H](C)CC[C@]3(CCC(=O)[C@H]32)[C@@H](C)[C@@H]1O [Compound 11, (3aR,4R,5R,7S,8S,9R,9aS,12R)-8-hydroxy-4,7,9,12-tetramethyl-3-oxo-7-vinyldecahydro-4,9a-propanocyclopenta[8]annulen-5-yl 2-((1-hydroxy-4-methyl-1,3-dihydrobenzo[c][1,2]oxaborol-6-yl)oxy)acetate] | – | – | – | < 0.25 | < 0.25
C=C[C@]1(C)C[C@@H](OC(=O)Nc2ccc3c(c2)B(O)OC3)[C@]2(C)[C@H](C)CC[C@]3(CCC(=O)[C@H]32)[C@@H](C)C1=O [Compound 43, (3aR,4R,5R,7S,9R,9aS,12R)-4,7,9,12-tetramethyl-3,8-dioxo-7-vinyldecahydro-4,9a-propanocyclopenta[8]annulen-5-yl (1-hydroxy-1,3-dihydrobenzo[c][1,2]oxaborol-6-yl)carbamate] | – | 0.5 to 2 (≈ 1.01 to 4.05 µM) | 0.5 to 2 (≈ 1.01 to 4.05 µM) | – | –
C=C[C@]1(C)C[C@@H](OC(=O)COc2cc3c(cc2F)COB3O)[C@]2(C)[C@H](C)CC[C@]3(CCC(=O)[C@H]32)[C@@H](C)[C@@H]1O [Compound 3, (3aR,4R,5R,7S,8S,9R,9aS,12R)-8-hydroxy-4,7,9,12-tetramethyl-3-oxo-7-vinyldecahydro-4,9a-propanocyclopenta[8]annulen-5-yl 2-((5-fluoro-1-hydroxy-1,3-dihydrobenzo[c][1,2]oxaborol-6-yl)oxy)acetate] | – | – | – | < 0.25 | < 0.25
C=C[C@]1(C)C[C@@H](OC(=O)CNc2ccc3c(c2)B(O)OC3CN)[C@]2(C)[C@H](C)CC[C@]3(CCC(=O)[C@H]32)[C@@H](C)[C@@H]1O (stereo partly drawn) [Compound 52, (3aR,4R,5R,7S,8S,9R,9aS,12R)-8-hydroxy-4,7,9,12-tetramethyl-3-oxo-7-vinyldecahydro-4,9a-propanocyclopenta[8]annulen-5-yl (3-(aminomethyl)-1-hydroxy-1,3-dihydrobenzo[c][1,2]oxaborol-6-yl)glycinate] | – | – | – | 0.5 to 2 (≈ 0.929 to 3.71 µM) | 0.5 to 2 (≈ 0.929 to 3.71 µM)
